Experimental data as given in patent US9770469B2, “Methods of reprogramming renal cells” (Tel HaShomer Medical Research Infrastructure and Services …, priority 2009, dated 2017).

Tested on: adult kidney cells
Assay: Chromatin immunoprecipitation (ChIP) of Six2 and Wt1 promoters
Format: cell-based, human
Details: VPA 4 mM
Procedure: Chromatin Immunoprecipitation Assay (ChIP): 10×10^6 cells adult kidney cells were grown. Untreated cells (control) or cells treated with VPA (4 mM) were cross-linked with 1% formaldehayde for 10 min at RT in culture medium. The cells were washed and harvested in cold phosphate-buffered saline (PBS) containing protease inhibitors (Complete mini, Roche Applied Science) and Pepstatin (Sigma). The cells were then washed with Buffer B (20 mM Hepes pH 7.6, 0.25% Triton-x, 10 mM EDTA, 0.5 mM EGTA) and Buffer C (50 mM Hepes pH 7.6, 150 mM NaCl, 1 mM EDTA, 0.5 mM EGTA) were resuspended in 300 μl of SDS lysis buffer [1% SDS, 10 mM EDTA and 50 mM Tris-HCl (pH 8.1)], and incubated on ice for 10 minutes. Lysates were sonicated with 8×10 second bursts and debris were removed by centrifugation for 10 minutes at 1000 g, at 4° C. Supernatants were diluted 10-fold in ChIP dilution buffer [0.01% SDS, 1.1% Triton X-100, 1.2 mM EDTA, 16.7 mM Tris-HCl (pH 8.1) and 167 mM NaCl] and pre-cleared by incubating with 40 μl of protein A+salmon sperm beads (Upstate Biotechnology) for 30 minutes at 4° C. Beads were pelleted for 1 minute at 1000 g at 4° C. A total of 10 μl of the supernatant was saved as input, and the rest was divided into equal aliquots and incubated by rocking with either control Ab (IgG) or with of specific antibodies; Trimethyl-Histon 3K27 antibody (Upstate Biotechnology), anti acetylatedhistone H4 (Upstate Biotechnology) over night at 4° C. A total of 60 μl of protein A+salmon sperm beads was added, and the samples were rocked for 2 hours at 4° C. The complexes on the beads were washed for 5 minutes at 4° C. with the following buffers: low salt [0.1% SDS, 1% Triton X-100, 2 mM EDTA, 20 mM Tris-HCl (pH 8.1) and 150 mM NaCl], high salt [0.1% SDS, 1% Triton X-100, 2 mM EDTA, 20 mM Tris-HCl (pH 8.1), 500 mM NaCl], LiCl wash [0.25 M LiCl, 1% Nonidet P-40, 1% deoxycholate, 1 mM EDTA and 10 mM Tris-HCl (pH 8.1)], and twice with TE [10 mM Tris-HCl and 1 mM EDTA (pH 8.0)]. Immune complexes were eluted twice with 200 μl of elution buffer [1% SDS and 0.1 M NaHCO3]for 15 minutes at room temperature. The samples were de-crosslinked by adding 16 μl of 5 M NaCl, 8 μl of 0.5 M EDTA (pH 6.5) and 16 μl of 1M Tris-HCl (pH 8.1) and incubated O.N at 65° C. Proteinase K (10 mg/ml) and the samples were incubated for additional 2 hours at 55° C. Immunoprecipitated DNA was recovered by phenol/chloroform extraction and ethanol precipitation and was analyzed by quantitative RT PCR.

## CCCC(CCC)C(=O)O [VPA, valproic acid]
  H3K4me at Six2 promoter regions: significant increases
  H3K4me elevation in the Wt1 promoter region: not
  H3K27me in the Wt1 promoter region: modest elevation
  H3K27me levels at Six2 promoter regions: no change
  acetylated histones H4 at Six2 promoter regions (-92, -412, -541, -731, -955, -1157): significantly increased
